Data published in patent US20250249102A1, “CMV-HIV SPECIFIC CHIMERIC ANTIGEN RECEPTOR T CELLS” (priority 2022, published 2025).
pEC50: −log10 of the molar value. Where two headings read alike, the source gives them in different places.

Tests used:
HIV-1 BaL or HIV-1 NL4-3 [1] = assay: microbe, parasite or virus in culture; details: Human immunodeficiency virus 1, PBMC
HIV-1 BaL or HIV-1 NL4-3 [2] = details: for HIV replication: CD8+-depleted PBMCs infected with HIV-1 BaL or HIV-1 NL4-3

Compound	pEC50 (HIV-1 BaL or HIV-1 NL4-3 [1])	HIV replication (HIV-1 BaL or HIV-1 NL4-3 [2])	pEC50 (HIV-1 BaL or HIV-1 NL4-3 [2])
CC(C)CN(C[C@@H](O)[C@H](Cc1ccccc1)NC(=O)O[C@H]1CO[C@H]2OCC[C@H]21)S(=O)(=O)c1ccc(N)cc1 [darunavir]	8.37	prevent HIV replication	–
enfuvirtide	–	prevent HIV replication	7.55
